# From patent US20080227637A1, “A Method of Controlling Weeds” (BASF Aktiengesellschaft, priority 2005, published 2008)
# Legend:
# Type in all cases: in vivo
# [1] = system: glyphosate resistant corn; assay: Field test, control of volunteer glyphosate resistant corn by pre-emergence application; details: Imazethapyr 70 g/ha, pre-emergence to soybean crop
# Method: (§1) In the examples below, the value E which is to be expected if the activity of the individual compounds is just additive was calculated using the method of S. R. Colby (1967) “Calculating synergistic and antagonistic responses of herbicide combinations”, Weeds 15, p. 22 ff.
# (§2) where X=effect in percent using active compound A at an application rate a; Y=effect in percent using active compound B at an application rate b; E=expected effect (in %) of A+B at application rates a+b.
# (§3) If the experimentally determined value is higher than the value E calculated according to Colby's equation, a synergistic effect is present.
# (§4) The phenyluracils I and/or the other active ingredients according to the present invention were formulated in a suitable way, either separately or in mixture, e.g. as emulsifiable concentrates (EC), soluble concentrates (SL), suspo-emulsions (SE), suspension concentrates (SC) or water-dispersible granules (WG). The formulation(s) were suspended or emulsified in water as a distribution medium immediately prior to spraying. Afterwards, the aqueous mixture was evenly sprayed on the test plots or plant pots by means of finely distributing nozzles.
# (§5) As regards the field tests, the test plots were of uniform size (typically between 14 and 37 square meters, each) and the distribution of treated and untreated plots was organized according to a randomised bloc design. […]
# [2] = system: Glyphosate resistant cotton; assay: Field test, control of glyphosate resistant cotton in post-directed treatment; details: glyphosate 560 g/ha
# Method: as §1, §2, §3, §4, §5
# [3] = system: Glyphosate resistant marestail (ERICA); assay: Greenhouse test, post-emergence control of glyphosate resistant marestail; details: use rate 420 g/ha
# From the text: as §4
# (§6) For the greenhouse tests, plants were grown in pots to a height between 3 and 6 cm, and then treated (post-emergence). During the test period of 29 days, the plants were tended.
# (§7) The evaluation of the damage caused by the phenyluracils I and/or the other active ingredients according to the present invention was carried out using a scale from 0 to 100%, compared to the untreated control plots. Here, 0 means no damage and 100 means complete destruction of the plants of a respective weed or crop species.
# (§8) In this example, glyphosate (isopropylammonium salt) was formulated as a 353 g/l SL and Phenyluracil I.7 as a 120 g/l EC. Prior to application, the formulated active ingredients were tank-mixed with an aqueous 187 l/ha spray solution which contained, in addition, 15 g/l of ammonium sulphate and 2.5 g/l of non-ionic surfactant.
# [4] = system: Glyphosate susceptible marestail (ERICA); assay: Greenhouse test, post-emergence control of glyphosate susceptible marestail; details: use rate 420 g/ha
# From the text: as §4, §6, §7, §8
SMILES,"Control of glyphosate resistant corn at 29 DAT (% control), Found [1]","Glyphosate resistant cotton at 3 DAT (% control), Found [2]",Glyphosate resistant marestail (ERICA) at 29 DAT (% herbicide control) [3],Glyphosate susceptible marestail (ERICA) at 29 DAT (% herbicide control) [4]
"CCc1cnc(C2=NC(C)(C(C)C)C(=O)N2)c(C(=O)O)c1 (stereo not shown) [Imazethapyr, imazethapyr]",23%,–,–,–
"O=C(O)CNCP(=O)(O)O [Glyphosate, glyphosate]",–,0%,0%,98%
